Assay results published in ChEMBL document CHEMBL3407491, “Synthesis, characterization and in vitro photodynamic antimicrobial activity of basic amino acid-porphyrin conjugates” (Eur J Med Chem, 2015).
Values after ≈ are worked out from the molar mass of the structure shown. Active and inactive are the calls of the source. The rule behind the calls is not given here.

Legend:
[1] = system: Escherichia coli; assay: Antibacterial activity against Escherichia coli ATCC 25922 at 3.91 uM to 62.50 uM incubated in dark for 30 mins followed by exposure to light fluences at 650 nm and 6 J/cm2 and then incubated overnight measured after 24 hrs; format: functional, organism-based
[2] = system: Staphylococcus aureus; assay: Antibacterial activity against methicillin-resistant Staphylococcus aureus incubated in dark for 30 mins measured after 24 hrs; format: functional
[3] = system: Pseudomonas aeruginosa; assay: Antibacterial activity against Pseudomonas aeruginosa ATCC 27853 at 0.49 uM to 7.8 uM incubated in dark for 30 mins followed by exposure to light fluences at 650 nm and 6 J/cm2 and then incubated overnight measured after 24 hrs; format: functional, organism-based
[4] = system: Pseudomonas aeruginosa; assay: Bactericidal activity against Pseudomonas aeruginosa ATCC 27853 incubated in dark for 30 mins followed by exposure to light fluences at 650 nm and 6 J/cm2 and then incubated overnight followed by further incubation on LB agar plates for another 24 hrs; format: functional; details: ATCC 27853, light or radiation study
[5] = system: Pseudomonas aeruginosa; assay: Antibacterial activity against Pseudomonas aeruginosa ATCC 27853 incubated in dark for 30 mins and grown for 24 hrs followed by further incubation on LB agar plates for another 24 hrs; format: functional
[6] = system: Staphylococcus aureus; assay: Antibacterial activity against methicillin-resistant Staphylococcus aureus incubated in dark for 30 mins followed by exposure to light fluences at 650 nm and 6 J/cm2 and then incubated overnight measured after 24 hrs; format: functional; details: light or radiation study
[7] = system: Staphylococcus aureus; assay: Bactericidal activity against methicillin-resistant Staphylococcus aureus incubated in dark for 30 mins followed by exposure to light fluences at 650 nm and 6 J/cm2 and then incubated overnight followed by further incubation on LB agar plates for another 24 hrs; format: functional; details: light or radiation study
[8] = system: Escherichia coli; assay: Antibacterial activity against Escherichia coli ATCC 25922 incubated in dark for 30 mins followed by exposure to light fluences at 650 nm and 6 J/cm2 and then incubated overnight measured after 24 hrs; format: functional; details: ATCC 25922, light or radiation study
[9] = system: Escherichia coli; assay: Bactericidal activity against Escherichia coli ATCC 25922 incubated in dark for 30 mins followed by exposure to light fluences at 650 nm and 6 J/cm2 and then incubated overnight followed by further incubation on LB agar plates for another 24 hrs; format: functional; details: ATCC 25922, light or radiation study
[10] = system: Escherichia coli; assay: Antibacterial activity against Escherichia coli ATCC 25922 incubated in dark for 30 mins and grown for 24 hrs followed by further incubation on LB agar plates for another 24 hrs; format: functional
[11] = Singlet oxygen generation of the compound exposed to 4.2 mW/cm2 light energy density assessed as singlet oxygen quantum yield measured at 410 nm in 10 seconds intervals of irradiation at 0.2 uM by DPBF scavenger based assay
[12] = system: Escherichia coli; assay: Antibacterial activity against Escherichia coli ATCC 25922 incubated in dark for 30 mins measured after 24 hrs; format: functional
[13] = system: Pseudomonas aeruginosa; assay: Antibacterial activity against Pseudomonas aeruginosa ATCC 27853 at 3.91 uM to 62.50 uM incubated in dark for 30 mins followed by exposure to light fluences at 650 nm and 6 J/cm2 and then incubated overnight measured after 24 hrs; format: functional, organism-based
[14] = system: Pseudomonas aeruginosa; assay: Antibacterial activity against Pseudomonas aeruginosa ATCC 27853 incubated in dark for 30 mins measured after 24 hrs; format: functional
[15] = system: Escherichia coli; assay: Antibacterial activity against Escherichia coli ATCC 25922 at 0.49 uM to 7.8 uM incubated in dark for 30 mins followed by exposure to light fluences at 650 nm and 6 J/cm2 and then incubated overnight measured after 24 hrs; format: functional, organism-based
[16] = system: Staphylococcus aureus; assay: Antibacterial activity against methicillin-resistant Staphylococcus aureus incubated in dark for 30 mins and grown for 24 hrs followed by further incubation on LB agar plates for another 24 hrs; format: functional
[17] = Octanol water partition coefficient, log P of the compound by reverse-phase thin-layer chromatography; format: physicochemical
[18] = system: Staphylococcus aureus; assay: Antibacterial activity against methicillin-resistant Staphylococcus aureus at 0.49 uM to 7.8 uM incubated in dark for 30 mins followed by exposure to light fluences at 650 nm and 6 J/cm2 and then incubated overnight measured after 24 hrs; format: functional, organism-based
[19] = system: Pseudomonas aeruginosa; assay: Antibacterial activity against Pseudomonas aeruginosa ATCC 27853 incubated in dark for 30 mins followed by exposure to light fluences at 650 nm and 6 J/cm2 and then incubated overnight measured after 24 hrs; format: functional; details: ATCC 27853, light or radiation study
[20] = Photostability at 2 x 10^-5 mol/L exposed to 4.2 mW/cm2 light energy density assessed as change in absorption spectra after 30 mins post irradiation; format: physicochemical; details: 0.5 h, 20 µM

Structure (SMILES): N=C(N)NCCC[C@H](N)C(=O)Nc1ccc(-c2c3nc(c(-c4ccc(N)cc4)c4ccc([nH]4)c(-c4ccc(N)cc4)c4nc(c(-c5ccc(N)cc5)c5ccc2[nH]5)C=C4)C=C3)cc1
- Activity [1]: inactive
- MIC [2]: 62.5 µM (≈ 51.9 µg/mL)
- Activity [3]: inactive
- MBC [4]: 250 µM (≈ 208 µg/mL)
- MBC [5]: 250 µM (≈ 208 µg/mL)
- MIC [6]: 62.5 µM (≈ 51.9 µg/mL)
- MBC [7]: 500 µM (≈ 416 µg/mL)
- MIC [8]: 62.5 µM (≈ 51.9 µg/mL)
- MBC [9]: 125 µM (≈ 104 µg/mL)
- MBC [10]: 125 µM (≈ 104 µg/mL)
- Activity [11]: 0.47
- MIC [12]: 62.5 µM (≈ 51.9 µg/mL)
- Activity [13]: inactive
- MIC [14]: 62.5 µM (≈ 51.9 µg/mL)
- Activity [15]: inactive
- MBC [16]: 500 µM (≈ 416 µg/mL)
- logP [17]: 1.25
- Activity [18]: inactive
- MIC [19]: 62.5 µM (≈ 51.9 µg/mL)
- Activity [20]: < 20%

Structure (SMILES): NCCCC[C@H](N)C(=O)Nc1ccc(-c2c3nc(c(-c4ccc(N)cc4)c4ccc([nH]4)c(-c4ccc(N)cc4)c4nc(c(-c5ccc(N)cc5)c5ccc2[nH]5)C=C4)C=C3)cc1
- MIC [2]: 250 µM (≈ 201 µg/mL)
- MBC [4]: > 500 µM
- MBC [5]: > 500 µM
- MIC [6]: 250 µM (≈ 201 µg/mL)
- MBC [7]: 500 µM (≈ 401 µg/mL)
- MIC [8]: 250 µM (≈ 201 µg/mL)
- MBC [9]: 500 µM (≈ 401 µg/mL)
- MBC [10]: 500 µM (≈ 401 µg/mL)
- Activity [11]: 0.17
- MIC [12]: 250 µM (≈ 201 µg/mL)
- MIC [14]: 250 µM (≈ 201 µg/mL)
- MBC [16]: > 500 µM
- logP [17]: 1.4
- MIC [19]: 500 µM (≈ 401 µg/mL)
- Activity [20]: < 20%

Structure (SMILES): N[C@@H](Cc1c[nH]cn1)C(=O)Nc1ccc(-c2c3nc(c(-c4ccccc4)c4ccc([nH]4)c(-c4ccccc4)c4nc(c(-c5ccccc5)c5ccc2[nH]5)C=C4)C=C3)cc1
- Activity [1]: inactive
- MIC [2]: 125 µM (≈ 95.9 µg/mL)
- Activity [3]: inactive
- MBC [4]: 125 µM (≈ 95.9 µg/mL)
- MBC [5]: 250 µM (≈ 192 µg/mL)
- MIC [6]: 125 µM (≈ 95.9 µg/mL)
- MBC [7]: 250 µM (≈ 192 µg/mL)
- MIC [8]: 62.5 µM (≈ 47.9 µg/mL)
- MBC [9]: 125 µM (≈ 95.9 µg/mL)
- MBC [10]: 250 µM (≈ 192 µg/mL)
- Activity [11]: 0.56
- MIC [12]: 125 µM (≈ 95.9 µg/mL)
- Activity [13]: inactive
- MIC [14]: 125 µM (≈ 95.9 µg/mL)
- Activity [15]: inactive
- MBC [16]: 500 µM (≈ 383 µg/mL)
- logP [17]: 1.6
- Activity [18]: inactive
- MIC [19]: 62.5 µM (≈ 47.9 µg/mL)
- Activity [20]: < 20%

Structure (SMILES): Nc1ccc(-c2c3nc(c(-c4ccc(N)cc4)c4ccc([nH]4)c(-c4ccc(NC(=O)[C@@H](N)Cc5c[nH]cn5)cc4)c4nc(c(-c5ccc(N)cc5)c5ccc2[nH]5)C=C4)C=C3)cc1
- Activity [1]: inactive
- MIC [2]: 62.5 µM (≈ 50.7 µg/mL)
- Activity [3]: inactive
- MBC [4]: 250 µM (≈ 203 µg/mL)
- MBC [5]: 250 µM (≈ 203 µg/mL)
- MIC [6]: 62.5 µM (≈ 50.7 µg/mL)
- MBC [7]: 250 µM (≈ 203 µg/mL)
- MIC [8]: 62.5 µM (≈ 50.7 µg/mL)
- MBC [9]: 250 µM (≈ 203 µg/mL)
- MBC [10]: 250 µM (≈ 203 µg/mL)
- Activity [11]: 0.2
- MIC [12]: 62.5 µM (≈ 50.7 µg/mL)
- Activity [13]: inactive
- MIC [14]: 62.5 µM (≈ 50.7 µg/mL)
- Activity [15]: inactive
- MBC [16]: 250 µM (≈ 203 µg/mL)
- logP [17]: 1.53
- Activity [18]: inactive
- MIC [19]: 62.5 µM (≈ 50.7 µg/mL)
- Activity [20]: < 20%

Structure (SMILES): C1=Cc2nc1c(-c1ccccc1)c1ccc([nH]1)c(-c1ccccc1)c1nc(c(-c3ccccc3)c3ccc([nH]3)c2-c2ccccc2)C=C1
- Activity [11]: 0.64

Structure (SMILES): Nc1ccc(-c2c3nc(c(-c4ccccc4)c4ccc([nH]4)c(-c4ccccc4)c4nc(c(-c5ccccc5)c5ccc2[nH]5)C=C4)C=C3)cc1
- Activity [1]: inactive
- MIC [2]: 125 µM (≈ 78.7 µg/mL)
- Activity [3]: inactive
- MBC [4]: 125 µM (≈ 78.7 µg/mL)
- MBC [5]: 250 µM (≈ 157 µg/mL)
- MIC [6]: 125 µM (≈ 78.7 µg/mL)
- MBC [7]: 500 µM (≈ 315 µg/mL)
- MIC [8]: 62.5 µM (≈ 39.4 µg/mL)
- MBC [9]: 125 µM (≈ 78.7 µg/mL)
- MBC [10]: 500 µM (≈ 315 µg/mL)
- MIC [12]: 125 µM (≈ 78.7 µg/mL)
- Activity [13]: inactive
- MIC [14]: 125 µM (≈ 78.7 µg/mL)
- Activity [15]: inactive
- MBC [16]: 500 µM (≈ 315 µg/mL)
- Activity [18]: inactive
- MIC [19]: 62.5 µM (≈ 39.4 µg/mL)
- Activity [20]: < 20%
